# Data taken from article PMC4667779 (Bioorganic & medicinal chemistry, 2014).
# Where two headings read alike, the source gives them in different places.
# Biological target: Pantothenate synthetase (PanC) from Mtb (Mycobacterium tuberculosis, UniProt P9WIL5)
# Format: biochemical
# Pantothenate synthetase (PanC) from Mtb, sequence (P9WIL5 whole entry, looked up): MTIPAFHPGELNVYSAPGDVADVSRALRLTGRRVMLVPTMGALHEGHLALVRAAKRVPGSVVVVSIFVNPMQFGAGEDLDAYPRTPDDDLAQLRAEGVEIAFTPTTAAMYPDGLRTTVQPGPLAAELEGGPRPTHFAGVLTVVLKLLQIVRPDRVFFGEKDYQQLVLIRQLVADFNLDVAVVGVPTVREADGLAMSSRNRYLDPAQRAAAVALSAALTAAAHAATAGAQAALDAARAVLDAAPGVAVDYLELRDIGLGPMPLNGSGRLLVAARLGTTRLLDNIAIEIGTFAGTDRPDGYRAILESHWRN
SMILES,fold loss in affinity relative to 1a (ratio of Ki values),other results
"CC(C)(C)[C@@H](O)C(=O)NS(=O)(=O)OC[C@H]1O[C@@H](n2cnc3c(N)ncnc32)[C@H](O)[C@@H]1O [1a, 5′-O-[N-((R)-2-Hydroxy-3,3-dimethylbutanoyl)sulfamoyl]adenosine]",–,"modality of inhibition with respect to pantoic acid (double-reciprocal plots, fixed ATP and saturating β-alanine): competitive inhibitor towards pantoic acid"
"CC(C)(C)[C@@H](O)C(=O)NS(=O)(=O)OC[C@H]1O[C@@H](n2cnc3c(N)ncnc32)[C@@H](O)[C@@H]1O [compound 2, 5′-O-[N-((R)-2-Hydroxy-3,3-dimethylbutanoyl)sulfamoyl]vidarabine]",4–6 fold,–
"CC(C)(C)[C@@H](O)C(=O)NS(=O)(=O)OC[C@H]1O[C@@H](n2cnc3c(N)ncnc32)[C@H](F)[C@@H]1O [compound 3, 2′-Deoxy-2′-fluoro-5′-O-[N-((R)-2-Hydroxy-3,3-dimethylbutanoyl)sulfamoyl] adenosine]",–,fold loss in affinity relative to 1a: 2–3 fold
"CC(C)(C)[C@@H](O)C(=O)NS(=O)(=O)OC[C@H]1C[C@@H](n2cnc3c(N)ncnc32)[C@H](O)[C@@H]1O [compound 4, 5′-O-[N-((R)-2-Hydroxy-3,3-dimethylbutanoyl)sulfamoyl]aristeromycin]",2–3 fold,–
"CC(C)(CO)[C@@H](O)CNS(=O)(=O)NC[C@H]1O[C@@H](n2cnc3c(N)ncnc32)[C@H](O)[C@@H]1O [compound 5, 5′-Amino-5′-deoxy-5′-N-[N-((R)-2,2-dimethylbutane-1,3-diol-4-yl)sulfamoyl] adenosine]",approximately 13 fold,–
